Experimental data from PMC6803965, “A New Class of β–Pyrrolidino-1,2,3-Triazole Derivatives as β-Adrenergic Receptor Inhibitors: Synthesis, Pharmacological, and Docking Studies” (Molecules, 2019).
Converted amounts (≈) assume the structure as drawn. Like-named read-outs stand apart in the source and are kept apart here.

Tests used:
HepG-2 cells = experiment: Cytotoxicity, aqueous one solution reagent; type: cell-based; conditions: for IC50: Homo sapiens, HepG2, 24 h treatment, read-out: IC50 against HepG-2
Experimental: (§1) The cytotoxic study was carried out as reported previously. Briefly, IMR90, HepG-2, and A549 cells were grown in DMEM (Dulbecco’s Modified Eagle Medium) that contained 10% fetal bovine serum and 1% antibiotics. A total of 15 × 10^3 cells/well were seeded in 96-well plates and incubated under humidified conditions. Cells were treated with varying concentrations of synthesized triazoles for 24 h. After a 24 h treatment, 20 µL aqueous one solution reagent was added to each well and incubated for 3–4 h under a humidified condition. For IMR90 cells, MTT (MTT = 3-(4,5-dimethyl-2-thiazolyl)-2,5-diphenyl-2H-tetrazolium bromide) (5 mg/mL) was added and incubated for 3–4 h in the dark. After incubation, 100 µL of a 10% SDS (Sodium Dodecyl Sulfate) solution (0.01% HCl) was added to each well. The data was taken using an ELISA (enzyme-linked immunosorbent assay) reader at the absorbance of 490 nm for HepG-2 and A549 cells and 570 nm for IMR90 cells. The cell death was calculated using the following formula: Inhibition (%) = ((A − B)/A) × 100 (A—control group, B—treated group).

A549 cells = experiment: Cytotoxicity, aqueous one solution reagent; type: cell-based; conditions: for IC50: Homo sapiens, 24 h treatment, read-out: IC50 against A549
Experimental: as §1

[1] = system: Staphylococcus epidermidis; experiment: Antimicrobial well method, zone of inhibition; type: cell-based
Experimental: (§2) Antimicrobial activity was carried out as described previously. Briefly, 20 mL of sterile Mueller Hinton agar (MHA) was poured in the petri plates and kept for solidification. After solidification, the test cultures were swabbed on the top of the media and kept for 10 min to dry. The required concentration (1 mg/well) of synthesized compounds 5a–l was added to each well and left for 30 min at RT for compound diffusion. Ketoconazole (fungi) and streptomycin (bacteria) used for positive controls. The zone of inhibition was recorded in mm and the experiment was repeated twice.

[2] = system: Staphylococcus aureus-MRSA; experiment: Antimicrobial well method, zone of inhibition; type: cell-based
Experimental: as §2

Enterobacter aerogenes [3] = experiment: Antimicrobial well method, zone of inhibition; type: cell-based; conditions: Klebsiella aerogenes
Experimental: as §2

Proteus vulgaris [4] = experiment: Antimicrobial well method, zone of inhibition; type: cell-based
Experimental: as §2

Salmonella paratyphi-B [5] = experiment: Antimicrobial well method, zone of inhibition; type: cell-based
Experimental: as §2

Salmonella typhimurium [6] = experiment: Antimicrobial well method, zone of inhibition; type: cell-based; conditions: Salmonella enterica
Experimental: as §2

Staphylococcus aureus [7] = experiment: Antimicrobial well method, zone of inhibition; type: cell-based
Experimental: as §2

Shigella flexneri [8] = experiment: Antimicrobial well method, zone of inhibition; type: cell-based
Experimental: as §2

Micrococcus luteus [9] = experiment: Antimicrobial well method, zone of inhibition; type: cell-based
Experimental: as §2

Klebsiella pneumoniae [10] = experiment: Antimicrobial well method, zone of inhibition; type: cell-based
Experimental: as §2

[11] = system: Staphylococcus epidermidis; experiment: Minimum inhibitory concentration (MIC); type: cell-based; conditions: read-out: Minimum inhibitory concentration
Experimental: (§3) The MIC experiment was carried out according to the standard reference methods. Briefly, the required concentrations of synthesized compounds 5a–l were dissolved in DMSO (Dimethylsulfoxide) in concentrations of 500 µg/mL, 250 µg/mL, 125 µg/mL, 62.5 µg/mL, 31.25 µg/mL, 15.6 µg/mL, and […]. An inoculum of 100 µL from each well (96-well plate) was inoculated. For the positive control, ketoconazole (fungi) and streptomycin (bacteria) was used. The MIC values for the tested bacteria were identified as the lowest inhibiting concentration of compound on the agar plate in visual growth.

[12] = system: Staphylococcus aureus-MRSA; experiment: Minimum inhibitory concentration (MIC); type: cell-based; conditions: read-out: Minimum inhibitory concentration
Experimental: as §3

Enterobacter aerogenes [13] = experiment: Minimum inhibitory concentration (MIC); type: cell-based; conditions: Klebsiella aerogenes, read-out: Minimum inhibitory concentration
Experimental: as §3

Proteus vulgaris [14] = experiment: Minimum inhibitory concentration (MIC); type: cell-based; conditions: read-out: Minimum inhibitory concentration
Experimental: as §3

Salmonella paratyphi-B [15] = experiment: Minimum inhibitory concentration (MIC); type: cell-based
Experimental: as §3

Salmonella typhimurium [16] = experiment: Minimum inhibitory concentration (MIC); type: cell-based; conditions: Salmonella enterica, read-out: Minimum inhibitory concentration
Experimental: as §3

Staphylococcus aureus [17] = experiment: Minimum inhibitory concentration (MIC); type: cell-based; conditions: read-out: Minimum inhibitory concentration
Experimental: as §3

Shigella flexneri [18] = experiment: Minimum inhibitory concentration (MIC); type: cell-based
Experimental: as §3

Micrococcus luteus [19] = experiment: Minimum inhibitory concentration (MIC); type: cell-based; conditions: read-out: Minimum inhibitory concentration
Experimental: as §3

Klebsiella pneumoniae [20] = experiment: Minimum inhibitory concentration (MIC); type: cell-based; conditions: read-out: Minimum inhibitory concentration
Experimental: as §3

tested bacteria = experiment: Antimicrobial well method, result in words; type: cell-based; conditions: 1 mg/mL concentration
Experimental: as §2

IMR90 cells = experiment: Cytotoxicity on normal cells, MTT; type: cell-based; conditions: IMR-90, human normal IMR90 cells, 24 h treatment, read-out: IC50 against IMR90
Experimental: as §1

Malassezia pachydermatis = experiment: Antimicrobial well method, zone of inhibition; type: cell-based
Experimental: as §2

Candida albicans = experiment: Antimicrobial well method, zone of inhibition; type: cell-based; conditions: 1 mg/well
Experimental: as §2

Row | SMILES | IC50 (HepG-2 cells) [µM] | cytotoxic / anticancer activity against A549 cells (A549 cells) | IC50 (A549 cells) [µM] | zone of inhibition at 1 mg/well [1] [mm] | zone of inhibition at 1 mg/well [2] [mm] | zone of inhibition at 1 mg/well (Enterobacter aerogenes [3]) [mm] | zone of inhibition at 1 mg/well (Proteus vulgaris [4]) [mm] | zone of inhibition at 1 mg/well (Salmonella paratyphi-B [5]) [mm] | zone of inhibition at 1 mg/well (Salmonella typhimurium [6]) [mm] | zone of inhibition at 1 mg/well (Staphylococcus aureus [7]) [mm] | zone of inhibition at 1 mg/well (Shigella flexneri [8]) [mm] | zone of inhibition at 1 mg/well (Micrococcus luteus [9]) [mm] | zone of inhibition at 1 mg/well (Klebsiella pneumoniae [10]) [mm] | MIC [11] [µg/mL] | MIC (Proteus vulgaris [14]) [µg/mL] | MIC (Salmonella paratyphi-B [15]) [µg/mL] | MIC (Staphylococcus aureus [17]) [µg/mL] | MIC (Shigella flexneri [18]) [µg/mL] | MIC (Micrococcus luteus [19]) [µg/mL] | MIC (Klebsiella pneumoniae [20]) [µg/mL] | also measured
1 | COc1ccc(C(=O)OCc2cn([C@H](c3ccccc3)[C@H](C)N3CCCC3)nn2)cc1OC [5h, (1R,2S)-(1-(1-Phenyl-2-(pyrrolidin-1-yl)propyl)-1H-1,2,3-triazol-4-yl)methyl-3,4-dimethoxy-benzoate] | 73 ± 3.88 | promising anticancer activity | 58 ± 2.31 | 16 | 20 | 17 | 23 | 19 | 22 | 15 | 18 | 14 | 20 | 125 (≈ 277 µM) | 62.5 (≈ 139 µM) | 62.5 (≈ 139 µM) | 250 (≈ 555 µM) | 125 (≈ 277 µM) | 250 (≈ 555 µM) | 62.5 (≈ 139 µM) | MIC ([12]; Staphylococcus, MRSA): 62.5 µg/mL (≈ 139 µM); MIC (Enterobacter aerogenes [13]): 125 µg/mL (≈ 277 µM); MIC (Salmonella typhimurium [16]; TYPHIMURIUM): 62.5 µg/mL (≈ 139 µM); antimicrobial activity against tested bacteria (tested bacteria): promising activity; IC50 (IMR90 cells): > 250 µM
2 | CC(C(c1ccccc1)n1cc(COC(=O)c2ccc(C(C)(C)C)cc2)nn1)N1CCCC1 [5i, (1R,2S)-(1-(1-Phenyl-2-(pyrrolidin-1-yl)propyl)-1H-1,2,3-triazol-4-yl)methyl 4-tert-butyl benzoate] | 197 ± 2.34 | promising anticancer activity | 134 ± 1.05 | 11 | 14 | 14 | – | 12 | – | 16 | 14 | 16 | 12 | 500 (≈ 1120 µM) | – | 500 (≈ 1120 µM) | 125 (≈ 280 µM) | 250 (≈ 560 µM) | 125 (≈ 280 µM) | 500 (≈ 1120 µM) | cytotoxic activity against HepG-2 cells (HepG-2 cells): moderate activity; zone of inhibition at 1 mg/well (Malassezia pachydermatis): 10 mm; zone of inhibition (Candida albicans): 12 mm; MIC ([12]; Staphylococcus aureus-MRSA): 250 µg/mL (≈ 560 µM); MIC (Enterobacter aerogenes [13]; Enterobacter aerogenes): 250 µg/mL (≈ 560 µM); IC50 (IMR90 cells): > 250 µM
3 | C[C@@H]([C@@H](c1ccccc1)n1cc(COC(=O)c2ccccc2Cl)nn1)N1CCCC1 [5k, (1R,2S)-(1-(1-Phenyl-2-(pyrrolidin-1-yl)propyl)-1H-1,2,3-triazol-4-yl)methyl 2-chlorobenzoate] | – | – | – | – | 17 | 22 | 16 | 18 | 15 | 18 | 17 | – | 14 | – | 125 (≈ 294 µM) | 125 (≈ 294 µM) | 125 (≈ 294 µM) | 125 (≈ 294 µM) | – | 250 (≈ 588 µM) | melting point: 101 to 102 °C; MIC ([12]; Staphylococcus, MRSA): 125 µg/mL (≈ 294 µM); MIC (Enterobacter aerogenes [13]; Enterobacter aerogenes): 62.5 µg/mL (≈ 147 µM); MIC (Salmonella typhimurium [16]; Salmonella typhimurium): 250 µg/mL (≈ 588 µM); antimicrobial activity against tested bacteria (tested bacteria): promising activity
4 | C[C@@H]([C@@H](c1ccccc1)n1cc(COC(=O)c2ccc([N+](=O)[O-])cc2)nn1)N1CCCC1 [5g, (1R,2S)-(1-(1-Phenyl-2-(pyrrolidin-1-yl)propyl)-1H-1,2,3-triazol-4-yl)methyl 4-nitrobenzoate] | > 300 | promising anticancer activity | 72 ± 3.21 | 28 | 24 | 22 | 26 | 20 | 22 | 16 | 25 | 17 | 24 | 31.2 (≈ 71.8 µM) | 31.2 (≈ 71.8 µM) | 62.5 (≈ 144 µM) | 125 (≈ 287 µM) | 31.2 (≈ 71.8 µM) | 125 (≈ 287 µM) | 31.2 (≈ 71.8 µM) | zone of inhibition (Candida albicans): 13 mm; MIC ([12]; Staphylococcus, MRSA): 31.2 µg/mL (≈ 71.8 µM); MIC (Enterobacter aerogenes [13]): 62.5 µg/mL (≈ 144 µM); MIC (Salmonella typhimurium [16]; TYPHIMURIUM): 62.5 µg/mL (≈ 144 µM); antimicrobial activity against tested bacteria (tested bacteria): promising activity; IC50 (IMR90 cells): > 250 µM
5 | Cc1cccc(C(=O)OCc2cn([C@H](c3ccccc3)[C@H](C)N3CCCC3)nn2)c1 [5j, (1R,2S)-(1-(1-Phenyl-2-(pyrrolidin-1-yl)propyl)-1H-1,2,3-triazol-4-yl)methyl 3-methylbenzoate] | > 300 | promising anticancer activity | 111 ± 1.82 | 14 | 14 | – | 20 | 18 | 20 | 15 | 22 | 16 | 22 | 250 (≈ 618 µM) | 62.5 (≈ 155 µM) | 125 (≈ 309 µM) | 250 (≈ 618 µM) | 62.5 (≈ 155 µM) | 125 (≈ 309 µM) | 62.5 (≈ 155 µM) | zone of inhibition at 1 mg/well (Malassezia pachydermatis): 11 mm; zone of inhibition (Candida albicans): 13 mm; MIC ([12]; Staphylococcus aureus-MRSA): 250 µg/mL (≈ 618 µM); MIC (Salmonella typhimurium [16]; TYPHIMURIUM): 62.5 µg/mL (≈ 155 µM); antimicrobial activity against tested bacteria (tested bacteria): promising activity; IC50 (IMR90 cells): > 250 µM
